# Test results reported in BindingDB's records for patent US11149040 (Amgen, 2021).
# Target: T1, Apelin receptor (Homo sapiens, UniProt P35414)
# T1 sequence (P35414 whole entry): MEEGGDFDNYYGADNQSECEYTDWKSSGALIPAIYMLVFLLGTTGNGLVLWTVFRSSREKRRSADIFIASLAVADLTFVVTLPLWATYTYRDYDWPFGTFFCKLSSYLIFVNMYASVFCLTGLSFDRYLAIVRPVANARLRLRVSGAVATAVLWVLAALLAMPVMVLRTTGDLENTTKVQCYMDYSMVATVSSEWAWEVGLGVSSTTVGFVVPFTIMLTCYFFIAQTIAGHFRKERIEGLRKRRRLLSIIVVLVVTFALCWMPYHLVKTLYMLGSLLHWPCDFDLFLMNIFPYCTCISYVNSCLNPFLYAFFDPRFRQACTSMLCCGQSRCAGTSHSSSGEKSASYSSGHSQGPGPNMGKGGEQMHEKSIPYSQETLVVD
# Assay: [35S]GTPgammaS Binding
# Description: The human APJ receptor was cloned by polymerase chain reaction and the gene encoding the receptor was subcloned in pFLAG-CMV -3 expression vector (Sigma, Saint Louis, Mo. USA) in-house at Amgen. A GTPγS binding assay was performed on membranes prepared from CHO cells stably expressing human APJ receptor. The optimum experimental conditions for the concentrations of GDP, MgCl2, and NaCl in the assay buffer were initially determined. The assay was performed in 9 μL assay buffer [20 mM HEPES, pH 7.5, 5 mM MgCl2, 100 mM NaCl and 0.1% (w/v) BSA], 1 μL of diluted test compound (starting with 0.75 mM, 2-fold serial dilution with DMSO, total 22 points), 10 μL of 18 μM GDP (final concentration of 3 μM GDP), 20 μL of […] membrane protein expressing human APJ receptor captured with WGA PS beads (final concentration of 5 μg per well), and 20 μL of 0.3 nM [35S]GTPγS (final concentration is 0.1 nM [35S]GTPγS)(Perkin Elmer Life and Analytical Sciences, Waltham USA). […] Incubation was at RT for 90 min and the microplate was read using a ViewLux ultra HTS Microplate Imager (PerkinElmer, Inc.). All the results presented are means of several independent experiments and analyzed by non-linear regression methods using the commercially available program Prism (GraphPad, San Diego, Calif.) providing the EC50 values detailed in Table 13.
compound,measurement,value
"Cc1cnc([C@H](OC(C)C)[C@H](C)S(=O)(=O)Nc2nnc3n2-c2c(F)cccc2/C=C\CC3)nc1 (single isomer, unassigned) [US11149040, Example 49.0]",EC50,98 nM
